Results on one compound are retold here after article PMC10813319 (Biomedicines, 2024).

This experiment relates to PrP^C overexpression-induced cofilactin rods in rat hippocampal neurons.

In the case of `C[C@H](O)[C@@H](N)C(=O)N[C@@H](C(=O)N[C@H](CC(N)=O)C(=O)N[C@H](Cc1ccc(O)cc1)C(=O)N[C@@H](C(=O)O)[C@H](C)O)[C@H](C)O` [RAP-103], the “Rod formation induced by PrP^C overexpression, 4-day treatment” value was “blocked” and the “Rod formation induced by PrP^C overexpression, treatment for last day only” value is reported as “reversed”.
